In patent publication US7452688B2, “Transformed cell with enhanced sensitivity to antifungal compound and use thereof” (Sumitomo Chemical Company, Limited, priority 2002, dated 2008):

Key:
Assay type in all cases: cell-based, Saccharomyces cerevisiae
[1] = tested on: transformed budding yeast AH22-StOS1; assay: Antifungal compound sensitivity test, transformed budding yeast AH22-StOS1 (Example 16); conditions: 30° C. 28 hours, relative value in percentage
Protocol: The transformed budding yeast AH22-StOS1 prepared in Example 15 was cultured while shaking at 30° C. for 18 hours in a Glu-Leu medium. As a control, the AH22 strain was similarly cultured while shaking at 30° C. for 18 hours in a Glu medium. The absorbance at 600 nm of each grown transformed budding yeast in a cell suspension was measured, and cell suspension diluted with sterilized distilled water to the absorbance of 0.1 was prepared. Further, a cell suspension in which the aforementioned cell suspension of the transformed budding yeast AH22-StOS1 was diluted 50-fold with a Glu-Leu medium, and a cell suspension in which the aforementioned cell suspension of the AH22 strain was diluted 50-fold with a Glu medium were prepared.
A solution in which each of Compounds (1) to (3) was dissolved in dimethylsulfoxide (DMSO) to the concentration of 6 ppm, a solution in which each of Compounds (4) and (5) was dissolved in dimethylsulfoxide (DMSO) to the concentration of 2000 ppm, and a solution in which Compounds (6) and (7) was dissolved in dimethylsulfoxide (DMSO) to the concentration of 20 ppm were prepared, and two microplates were prepared in which each 1.0 μL per well of the Compound solution and DMSO as a control were dispensed. In one microplate among them, each 100 μL of cell suspensions of the transformed budding yeast AH22-StOS1 which had been prepared by dilution as described above was dispensed, and cultured by allowing to stand at 30° C. for 28 hours. In another microplate, each 100 μL of cell suspensions of the control yeast AH22 strain which had been prepared by dilution as described above was dispensed, and cultured by allowing to stand at 30° C. for 24.5 hours. After culturing, the absorbance at 600 nm of each well was measured with a microplate reader.
A degree of growth of the transformed budding yeast is expressed as a relative value in percentage, letting the absorbance at 600 nm at the concentration of the Compound of 0 ppm to be 100. It was confirmed that an inhibiting degree of growth of the transformed budding yeast TM182-StOS1 by each test substance was grater than an inhibiting degree of growth of the transformed budding yeast AH22-StOS1 by each test substance, and the transformed budding yeast TM182-StOS1 was a transformed cell with the enhanced sensitivity to an antifungal compound as compared with the transformed budding yeast AH22-StOS1.

[2] = tested on: transformed budding yeast AH22-HIK1; assay: Antifungal compound sensitivity test, transformed budding yeast AH22-HIK1 (Example 9); conditions: 30° C. 23 hours
Protocol: (§1) The transformed budding yeast AH22-HIK1 prepared in Example 8 was cultured while shaking at 30° C. for 24 hours in a Glu-Leu medium. As a control, the AH22 strain was similarly cultured while shaking at 30° C. for 24 hours in a Glu medium. The absorbance at 600 nm of a cell suspension of each of the grown transformed budding yeasts was measured, and a cell suspension diluted with each medium to the absorbance of 0.1 was prepared. Further, a cell suspension in which the aforementioned cell suspension of the transformed budding yeast AH22-HIK1 was diluted 50-fold with a Glu-Leu medium, and a cell suspension in which the aforementioned cell suspension of AH22 strain was diluted 50-fold with a Glu medium were prepared. A suspension in which each of compounds (1) to (3) was dissolved in dimethylsulfoxide (DMSO) to the concentration of 200 ppm, a solution in which each of Compounds (4) to (5) was dissolved in dimethylsulfoxide (DMSO) to the concentration of 600 ppm, and a solution in which each of Compounds (6) and (7) was dissolved in dimethylsulfoxide (DMSO) to the concentration of 20 ppm were prepared, and two microplates were prepared in which each 1.0 μL per well of the Compound solution and DMSO as a control were dispensed into two wells. In one microplate among them, each 100 μL of a cell suspension of the transformed budding yeast AH22-hiki which had been prepared by dilution as described above was dispensed, and cultured by allowing to stand at 30° C. for 23 hours. In another microplate, each 100 μL of the cell suspensions of control yeast AH22 strain which had been prepared by dilution as described above was dispensed, and cultured by allowing to stand at 30° C. for 27 hours. After culturing, the absorbance at 600 nm of each well was measured with a microplate reader.
(§2) Degree of growths of both of the transformed budding yeasts cultured in the presence of Compounds (1) to (7) and budding yeast as a control therefor are shown in Table 3. Degrees of growths of both of the transformed budding yeasts and budding yeast as a control thereof or are shown by a relative value in percentage, letting the absorbance of 600 nm at the concentration of the Compound of 0 ppm to be […]. It was confirmed that an inhibiting degree of growth of TM182-HIK1 by each test substance was greater than an inhibiting degree of growth of AH22-HIK1 by each test substance, and the TM182-HIK1 was a transformed cell with the enhanced sensitivity to an antifungal-compound as compared with AH22-HIK1.

[3] = tested on: AH22 strain; assay: Antifungal compound sensitivity test, control yeast AH22 strain (Example 9); conditions: 30° C. 27 hours
Protocol: as §1, §2

## C=CC1(C)OC(=O)N(c2cc(Cl)cc(Cl)c2)C1=O (stereo not drawn) [Compound (3), Vinclozolin]
[1]; final concentration 0.6 ppm
  Degree of growth of budding yeast AH22-StOS1 Glu-Leu medium: 98%
[2]; final concentration 2.0 ppm
  Degree of growth of budding yeast (%) AH22-HIK1 Glu-Leu medium: 104%
[3]; final concentration 2.0 ppm
  Degree of growth of budding yeast (%) AH22 Glu medium: 99%

## N#Cc1c[nH]cc1-c1cccc2c1OC(F)(F)O2 [Compound (6), Fludioxonil]
[1]; final concentration 0.2 ppm
  Degree of growth of budding yeast AH22-StOS1 Glu-Leu medium: 93%
[2]; final concentration 0.2 ppm
  Degree of growth of budding yeast (%) AH22-HIK1 Glu-Leu medium: 98%
[3]; final concentration 0.2 ppm
  Degree of growth of budding yeast (%) AH22 Glu medium: 101%

## O=[N+]([O-])c1c(Cl)c(Cl)c(Cl)c(Cl)c1Cl [Compound (4), Quintozene]
[1]; final concentration 20 ppm
  Degree of growth of budding yeast AH22-StOS1 Glu-Leu medium: 91%
[2]; final concentration 6.0 ppm
  Degree of growth of budding yeast (%) AH22-HIK1 Glu-Leu medium: 92%
[3]; final concentration 6.0 ppm
  Degree of growth of budding yeast (%) AH22 Glu medium: 97%

## CC12CC1(C)C(=O)N(c1cc(Cl)cc(Cl)c1)C2=O (stereo not drawn) [Compound (1), Procymidone]
[1]; final concentration 0.6 ppm
  Degree of growth of budding yeast AH22-StOS1 Glu-Leu medium: 101%
[2]; final concentration 2.0 ppm
  Degree of growth of budding yeast (%) AH22-HIK1 Glu-Leu medium: 89%
[3]; final concentration 2.0 ppm
  Degree of growth of budding yeast (%) AH22 Glu medium: 85%

## COP(=S)(OC)Oc1c(Cl)cc(C)cc1Cl [Compound (5), Tolclofos-methyl]
[1]; final concentration 20 ppm
  Degree of growth of budding yeast AH22-StOS1 Glu-Leu medium: 76%
[2]; final concentration 6.0 ppm
  Degree of growth of budding yeast (%) AH22-HIK1 Glu-Leu medium: 99%
[3]; final concentration 6.0 ppm
  Degree of growth of budding yeast (%) AH22 Glu medium: 93%

## N#Cc1c[nH]cc1-c1cccc(Cl)c1Cl [Compound (7), Fenpiclonil]
[1]; final concentration 0.2 ppm
  Degree of growth of budding yeast AH22-StOS1 Glu-Leu medium: 91%
[2]; final concentration 0.2 ppm
  Degree of growth of budding yeast (%) AH22-HIK1 Glu-Leu medium: 102%
[3]; final concentration 0.2 ppm
  Degree of growth of budding yeast (%) AH22 Glu medium: 89%

## CC(C)NC(=O)N1CC(=O)N(c2cc(Cl)cc(Cl)c2)C1=O [Compound (2), Iprodione]
[1]; final concentration 0.6 ppm
  Degree of growth of budding yeast AH22-StOS1 Glu-Leu medium: 100%
[2]; final concentration 2.0 ppm
  Degree of growth of budding yeast (%) AH22-HIK1 Glu-Leu medium: 84%
[3]; final concentration 2.0 ppm
  Degree of growth of budding yeast (%) AH22 Glu medium: 96%
